Source: ChEMBL document CHEMBL1134730, “Synthesis and biological evaluation of didemnin photoaffinity analogues” (Bioorg Med Chem Lett, 2001)
*1 amine or outer side, *2 acyl side, *3 side chain or, on linkers, in order; H or OH if unused. Where a SMILES comes first, the peptide text is derived from it. Bridges are numbered along the chain shown (N, C = ends). [ ]: non-standard residue; d: D form. The star is where a group is joined. ξ: configuration not given here. X1 = CC[C@H](C)[C@@H](N[*:1])[C@@H](O)CC(=O)O[C@H](C(=O)[C@H](C)C(=O)[*:2])C(C)C; Benzoyl(4-benzoyl) = O=C(c1ccccc1)c1ccc(C(=O)*)cc1; NMeY = CN[C@@H](Cc1ccc(O)cc1)C(=O)O; dNMeL = CN[C@H](CC(C)C)C(=O)O; Ahx = NCCCCCC(=O)O; ξP = O=C(O)C1CCCN1

Columns and labels:
Assay type in all cases: functional
[1] = The compound was evaluated for growth inhibition in NCI-60 tumor cells.; conditions: Homo sapiens
[2] = The compound was evaluated for inhibition of protein biosynthesis.
[3] = The compound was evaluated for total growth inhibition in NCI-60 tumor cells.; conditions: Homo sapiens
[4] = The compound was evaluated for toxicity in NCI-60 tumor cells.; conditions: Homo sapiens

| Structure (SMILES) | GI50 [1] [µM] | IC50 [2] [µM] | TGI [3] [µM] | LC50 [4] [µM] |
| --- | --- | --- | --- | --- |
| CC[C@H](C)[C@H]1NC(=O)[C@@H](NC(=O)[C@@H](CC(C)C)N(C)C(=O)CNC(=O)c2ccc(C(=O)c3ccccc3)cc2)[C@@H](C)OC(=O)[C@H](Cc2ccc(OC)cc2)N(C)C(=O)C2CCCN2C(=O)[C@H](CC(C)C)NC(=O)[C@@H](C)C(=O)[C@H](C(C)C)OC(=O)C[C@@H]1O (stereo partly specified) ({Benzoyl(4-benzoyl)}-G[dNMeL]T[X1]L[ξP][NMeY](Me); ester 3-C) | 0.013 | 4.5 | 2 | 23 |
| CC[C@H](C)[C@H]1NC(=O)[C@@H](NC(=O)[C@@H](CC(C)C)N(C)C(=O)c2ccc(C(=O)c3ccccc3)cc2)[C@@H](C)OC(=O)[C@H](Cc2ccc(OC)cc2)N(C)C(=O)C2CCCN2C(=O)[C@H](CC(C)C)NC(=O)[C@@H](C)C(=O)[C@H](C(C)C)OC(=O)C[C@@H]1O (stereo partly specified) ({Benzoyl(4-benzoyl)}-[dNMeL]T[X1]L[ξP][NMeY](Me); ester 2-C) | 0.003 | 4 | 0.35 | 15 |
| CC[C@H](C)[C@H]1NC(=O)[C@@H](NC(=O)[C@@H](CC(C)C)N(C)C(=O)CCCCCNC(=O)CCCCCNC(=O)c2ccc(C(=O)c3ccccc3)cc2)[C@@H](C)OC(=O)[C@H](Cc2ccc(OC)cc2)N(C)C(=O)C2CCCN2C(=O)[C@H](CC(C)C)NC(=O)[C@@H](C)C(=O)[C@H](C(C)C)OC(=O)C[C@@H]1O (stereo partly specified) | 0.017 | 19 | 5 | 48 |
| CC[C@H](C)[C@H]1NC(=O)[C@@H](NC(=O)[C@@H](CC(C)C)N(C)C(=O)CCCCCNC(=O)c2ccc(C(=O)c3ccccc3)cc2)[C@@H](C)OC(=O)[C@H](Cc2ccc(OC)cc2)N(C)C(=O)C2CCCN2C(=O)[C@H](CC(C)C)NC(=O)[C@@H](C)C(=O)[C@H](C(C)C)OC(=O)C[C@@H]1O (stereo partly specified) ({Benzoyl(4-benzoyl)-Ahx}-[dNMeL]T[X1]L[ξP][NMeY](Me); ester 2-C) | 0.0043 | 24 | 21 | 19 |
